We go through 34 molecules from patent US20110112151A1, “COMPOUND CAPABLE OF INHIBITING 11-BETA HYDROXYSTERIOD DEHYDROGENASE” (priority 2008, published 2011).

One series deals with T1, 11β-HSD1 (Homo sapiens, UniProt P28845).
T1 construct: expressed in transfected cells; host or cells: HEK 293 (stably transfected, HEK 293/HSD11B1)
Kind of series: 11β-HSD1 HEK assay (cell based assay, SPA). To be noted: HEK293; at 1 μM; whole HEK 293 cells stably transfected with the HSD11B1 gene, 3H-cortisone substrate; read-out: Activity (inhibition of 11β-HSD1). The method, then: 11β-HSD1 HEK Assay Protocol (Cell Based Assay)
11β-HSD1 activity is measured in whole HEK 293 cells stably transfected with the HSD11B1 gene. Cells are incubated in 96-well microplates in the presence of tritiated substrate. Enzyme activity is determined by measuring the amount of tritated product by scintillation proximity assay (SPA). Assay plates contain internal high and low controls to allow calculation of percentage inhibition.
1. […] 2. When the cells are 80% confluent the medium is removed from each well. 100 μl fresh, serum-free, medium containing ^3H-cortisone and test compound in 1% DMSO is added to each well*. Control wells are also dispensed. […] 3. The plate is incubated at 37° C. for the required time period. 4. 50 μl of media is removed from each well and transferred to a microplate containing 100 μl of a pre-incubated mixture of anti-cortisol antibody and SPA bead. The mixture is incubated with gentle shaking until equilibrium is reached, before transferring to a scintillation counter to establish the enzyme activity in each sample.
10 μl of compound is dispensed into each well of a 96-well microplate in 10% DMSO at 100 μM concentration. 90 μl media containing ^3H-cortisone is added to each well. The compound/media/substrate mixture is then transferred to the assay plate containing the cells. […]

T1 sequence (P28845 whole entry): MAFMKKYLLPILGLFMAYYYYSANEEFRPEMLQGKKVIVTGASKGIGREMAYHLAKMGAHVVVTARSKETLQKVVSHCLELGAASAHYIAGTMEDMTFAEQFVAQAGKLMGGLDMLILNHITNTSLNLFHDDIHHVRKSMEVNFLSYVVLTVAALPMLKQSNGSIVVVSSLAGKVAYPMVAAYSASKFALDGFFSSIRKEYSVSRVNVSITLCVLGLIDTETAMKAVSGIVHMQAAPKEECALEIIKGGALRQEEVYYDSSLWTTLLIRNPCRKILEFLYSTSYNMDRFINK

A word on the melting point: it is the temperature of the solid-liquid transition. Broadly, the inhibition is the change of the read-out against control, counted positive when it falls. With `O=C(CS(=O)(=O)c1ccncc1)C12CC3CC(CC(C3)C1)C2` [Example 32, 1-(adamantan-1-yl)-2-(pyridine-4-sulfonyl)ethan-1-one], the melting point was 143 to 144 °C. Also, the inhibition at 1 µM at 11β-HSD1 is above 60%.
In the case of `O=C(CSc1n[nH]c(-c2ccccc2)n1)C12CC3CC(CC(C3)C1)C2` [Example 89, 1-(Adamantan-1-yl)-2-[(5-phenyl-1H-1,2,4-triazol-3-yl)sulfanyl]ethanone], the melting point fell in the range of 187 to 188 °C. Besides, the inhibition at 1 µM at 11β-HSD1 was below 20%.
Taken in the same sequence, the figures for `CN(C)C(=O)c1ccc(SCC(=O)C23CC4CC(CC(C4)C2)C3)nc1` [Example 35, 6-(2-Adamantan-1-yl-2-oxo-ethylsulfanyl)-N,N-dimethyl-nicotinamide] were 62.5 to 64.5 °C and above 60%.
Regarding `O=C(CSCc1cccnc1)C12CC3CC(CC(C3)C1)C2` [Example 7, 1-Adamantan-1-yl-2-(pyridin-3-ylmethylsulfanyl)-ethanone], the melting point lay within 45 to 47 °C. Also, the inhibition at 1 µM on 11β-HSD1 is above 60%.
Taken in the same sequence, the figures for `CN(C)c1nnc(SCC(=O)C23CC4CC(CC(C4)C2)C3)s1` [Example 104, 1-(Adamantan-1-yl)-2-{[5-(dimethylamino)-1,3,4-thiadiazol-2-yl]sulfanyl}ethan-1-one] were 150 to 151 °C and above 60%.
Taken in the same sequence, the figures for `CCNC(=O)c1ccc(SCC(=O)C23CC4CC(CC(C4)C2)C3)nc1` [Example 34, 6-{[2-(adamantan-1-yl)-2-oxoethyl]sulfanyl}-N-ethylpyridine-3-carboxamide] were 135.5 to 137 °C and above 60%.
The molecule `Cn1cnnc1[S+]([O-])CC(=O)C12CC3CC(CC(C3)C1)C2` (stereo not drawn) [Example 63, 1-Adamantan-1-yl-2-(4-methyl-4H-[1,2,4]triazole-3-sulfinyl)-ethanone] gave a melting point of 124.5 to 127 °C. At 11β-HSD1, the inhibition at 1 µM was above 60%.
The matching figures for `CSc1nnc(SCC(=O)C23CC4CC(CC(C4)C2)C3)s1` [Example 106, 1-(Adamantan-1-yl)-2-{[5-(methylsulfanyl)-1,3,4-thiadiazol-2-yl]sulfanyl}ethan-1-one]: 133.5 to 135 °C and above 60%.
The matching figures for `Cn1ccnc1[S+]([O-])C(C)(C)C(=O)C12CC3CC(CC(C3)C1)C2` (stereo not drawn) [Example 15, 1-Adamantan-1-yl-2-methyl-2-(1-methyl-1H-imidazole-2-sulfinyl)-propan-1-one]: 98 to 102 °C and below 20%.
Taken in the same sequence, the figures for `CC(=O)Nc1nnc([S+]([O-])CC(=O)C23CC4CC(CC(C4)C2)C3)s1` (stereo not drawn) [Example 94, N-(5-{[2-(Adamantan-1-yl)-2-oxoethane]sulfinyl}-1,3,4-thiadiazol-2-yl)acetamide] were 216 to 218 °C and above 60%.
Take `O=C(CSc1n[nH]c(-c2ccco2)n1)C12CC3CC(CC(C3)C1)C2` [Example 90, 1-(Adamantan-1-yl)-2-{[5-(furan-2-yl)-1H-1,2,4-triazol-3-yl]sulfanyl}ethanone]: the melting point lay within 177 to 178 °C. Also, the inhibition at 1 µM on 11β-HSD1 was below 20%.
Taken in the same sequence, the figures for `O=C(CCc1cccnc1)C12CC3CC(CC(C3)C1)C2` [Example 39, 1-Adamantan-1-yl-3-pyridin-3-yl-propan-1-one] were 43 to 44.5 °C and above 60%.
Taken in the same sequence, the figures for `Cn1c(SCC(=O)C23CC4CC(CC(C4)C2)C3)nc2ccccc21` [Example 14, 1-Adamantan-1-yl-2-(1-methyl-1H-benzoimidazol-2-ylsulfanyl)-ethanone] were 146 to 147.5 °C and below 20%.
Molecule `Cc1cccc(SCC(=O)C23CC4CC(CC(C4)C2)C3)n1` [Example 26, 1-Adamantan-1-yl-2-(6-methyl-pyridin-2-ylsulfanyl)-ethanone] displayed a melting point of 115.5 to 116.5 °C. Moreover, the inhibition at 1 µM at 11β-HSD1 was above 60%.
Taken in the same sequence, the figures for `COCc1nnc(SCC(=O)C23CC4CC(CC(C4)C2)C3)n1C` [Example 107, 1-(Adamantan-1-yl)-2-{[5-(methoxymethyl)-4-methyl-4H-1,2,4-triazol-3-yl]sulfanyl}ethan-1-one] were 109 to 111 °C and above 60%.
As to `O=C(Nc1nnc([S+]([O-])CC(=O)C23CC4CC(CC(C4)C2)C3)s1)C1CC1` (stereo not drawn) [Example 96, N-(5-{[2-(Adamantan-1-yl)-2-oxoethane]sulfinyl}-1,3,4-thiadiazol-2-yl)cyclopropanecarboxamide], the melting point lay in the range of 172.5 to 174 °C. Moreover, the inhibition at 1 µM on 11β-HSD1 is above 60%.
Taken in the same sequence, the figures for `Cn1c(SCC(=O)C23CC4CC(CC(C4)C2)C3)nnc1C1CC1` [Example 101, 1-(Adamantan-1-yl)-2-[(5-cyclopropyl-4-methyl-4H-1,2,4-triazol-3-yl)sulfanyl]ethan-1-one] were 96 to 97.5 °C and above 60%.
`O=C(CSc1ccncc1)C12CC3CC(CC(C3)C1)C2` [Example 27, 1-Adamantan-1-yl-2-(pyridin-4-ylsulfanyl)-ethanone] came in with a melting point of 114 to 115 °C. The inhibition at 1 µM on 11β-HSD1 is above 60%.
The matching figures for `O=C(CSc1ccc(C(F)(F)F)cn1)C12CC3CC(CC(C3)C1)C2` [Example 66, 1-Adamantan-1-yl-2-(5-trifluoromethyl-pyridin-2-ylsulfanyl)-ethanone]: 141 to 142 °C and above 60%.
The matching figures for `O=C(/C=C/c1cccnc1)C12CC3CC(CC(C3)C1)C2` [Example 38, 1-Adamantan-1-yl-3-pyridin-3-yl-propenone]: 107 to 108.5 °C and above 60%.
As to `O=C(COCc1ccccn1)C1(c2ccc(Cl)cc2)CCC1` [Example 42, 1-[1-(4-Chloro-phenyl)-cyclobutyl]-2-(pyridin-2-ylmethoxy)-ethanone], the inhibition at 1 µM at 11β-HSD1 was below 20%.
On to `COc1cccnc1COCC(=O)C12CC3CC(CC(C3)C1)C2` [Example 86, 2-((3-Methoxypyridin-2-yl)methoxy)-1-adamantylethanone], for which the inhibition at 1 µM on 11β-HSD1 was above 60%.
Turning to `Cc1cc(C)c(C(=O)CSc2ccccn2)c(C)c1` [Example 73, 2-(Pyridin-2-ylsulfanyl)-1-(2,4,6-trimethyl-phenyl)-ethanone], on 11β-HSD1, the inhibition at 1 µM is below 20%.
Same read-out and setting: the same measure for `NC(=O)c1ccc(SCC(=O)C23CC4CC(CC(C4)C2)C3)nc1` [Example 37, 6-(2-Adamantan-1-yl-2-oxo-ethylsulfanyl)-nicotinamide]: above 60%; for `COc1ccncc1COCC(=O)C12CC3CC(CC(C3)C1)C2` [Example 85, 2-((4-methoxypyridin-3-yl)methoxy)-1-adamantylethanone]: above 60%; for `O=C(CS(=O)(=O)Cc1ccccn1)C12CC3CC(CC(C3)C1)C2` [Example 16, 1-Adamantan-1-yl-2-(pyridin-2-ylmethanesulfonyl)-ethanone]: above 60%.
Still for that read-out and setting: with `Cn1ccnc1S(=O)(=O)CC(=O)C1(c2ccc(Cl)cc2)CCC1` [Example 24, 1-[1-(4-Chloro-phenyl)-cyclobutyl]-2-(1-methyl-1H-imidazole-2-sulfonyl)-ethanone] the figure was below 20%; with `O=C(C[S+]([O-])c1ccccn1)C1(c2ccc(Cl)cc2)CCCCC1` (stereo not drawn) [Example 49, 1-[1-(4-Chloro-phenyl)-cyclohexyl]-2-(pyridine-2-sulfinyl)-ethanone], below 20%.
Still for that read-out and setting: with `O=C(CS(=O)(=O)c1ccccn1)C1(c2ccc(Cl)cc2)CC1` [Example 6, 1-[1-(4-Chloro-phenyl)-cyclopropyl]-2-(pyridine-2-sulfonyl)-ethanone] the figure was below 20%.
Turning to `Cn1ccnc1SCC(=O)C1(c2ccc(Cl)cc2)CCCCC1` [Example 40, 1-[1-(4-Chloro-phenyl)-cyclohexyl]-2-(1-methyl-1H-imidazol-2-ylsulfanyl)-ethanone], the inhibition at 1 µM on 11β-HSD1 was in the range of 20 to 60%.
The same measure, in the same setting: with `O=C(CS(=O)(=O)Cc1ccc(C(F)(F)F)nc1)C12CC3CC(CC(C3)C1)C2` [Example 69, 1-Adamantan-1-yl-2-(6-trifluoromethyl-pyridin-3-ylmethanesulfonyl)-ethanone] the figure was 20 to 60%.
Same read-out and setting: the same measure for `Cn1ccnc1S(=O)(=O)CC(=O)C1(c2ccc(Cl)cc2)CC1` [Example 3, 1-[1-(4-Chloro-phenyl)-cyclopropyl]-2-(1-methyl-1H-imidazole-2-sulfonyl)-ethanone]: below 20%.
Regarding `Cc1cc(C)c(C(=O)CSc2nccn2C)c(C)c1` [Example 74, 2-(1-Methyl-1H-imidazol-2-ylsulfanyl)-1-(2,4,6-trimethyl-phenyl)-ethanone], the inhibition at 1 µM at 11β-HSD1 is below 20%.
Consider `O=C(C[S+]([O-])c1ccccn1)C1(c2ccc(Cl)cc2)CC1` (stereo not drawn) [Example 5, 1-[1-(4-Chloro-phenyl)-cyclopropyl]-2-(pyridine-2-sulfinyl)-ethanone], for which, on 11β-HSD1, the inhibition at 1 µM was 20 to 60%.
